Assay results from the supplement of paper PMC10307832.

How the values were obtained:
Test in all cases: relative viability (nuclei count vs DMSO), 5 days (fraction); higher = more cells survive
[1] = compound: COC1=CC(c2cc3ccccc3[nH]2)=N/C1=C\c1[nH]c(C)cc1C [Obatoclax] + COc1cc2c(Oc3ccc(NC(=O)C4(C(=O)Nc5ccc(F)cc5)CC4)cc3F)ccnc2cc1OCCCN1CCOCC1 [Foretinib] (partner 0.25 µM)
Procedure, shortened: (§1)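 After 5 days of treatment, lung cancer cells in 1536-well plates were fixed and stained in a single step (final 0.05% Triton X-100, 1% formaldehyde, 1 ug/ml Hoechst) and their nuclei counted on 4× images. Treatment had been applied by pin tool the day after seeding as one drug alone or as a fixed anchor-drug dose with five library-drug doses (not always all listed) in √10 steps. Relative viability is the nuclei count of treated wells divided by that of vehicle wells, and values are medians of duplicate plates.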

[2] = compound: CC1=CC(=NN1)NC2=CC(=NC(=N2)/C=C/C3=CC=CC=C3)N4CCN(CC4)C + CC(=O)Nc1cccc(-n2c(=O)n(C3CC3)c(=O)c3c(Nc4ccc(I)cc4F)n(C)c(=O)c(C)c32)c1 [Trametinib] (partner 0.02 µM)
Procedure, shortened: as §1

[3] = compound: COC1=CC(c2cc3ccccc3[nH]2)=N/C1=C\c1[nH]c(C)cc1C [Obatoclax] + Cc1nc(NC(=O)N2CCC[C@H]2C(N)=O)sc1-c1ccnc(C(C)(C)C(F)(F)F)c1 [Alpelisib] (partner 2 µM)
Procedure, shortened: as §1

[4] = compound: CC(C)C[C@H](NC(=O)[C@H](Cc1ccccc1)NC(=O)c1cnccn1)B(O)O [Bortezomib] + Cc1cc(Nc2cc(N3CCN(C)CC3)nc(Sc3ccc(NC(=O)C4CC4)cc3)n2)n[nH]1 [Tozasertib] (partner 0.1 µM)
Procedure, shortened: as §1

Row | Cell Line | relative viability ([1]; first compound 0.01 µM) | relative viability ([1]; first compound 0.03162 µM) | relative viability ([1]; first compound 0.1 µM) | relative viability ([1]; first compound 0.3162 µM) | relative viability ([1]; first compound 1 µM) | relative viability ([2]; first compound 0.08 µM) | relative viability ([2]; first compound 0.253 µM) | relative viability ([2]; first compound 0.8 µM) | relative viability ([2]; first compound 2.53 µM) | relative viability ([2]; first compound 8 µM) | relative viability ([3]; first compound 0.01 µM) | relative viability ([3]; first compound 0.03162 µM) | relative viability ([3]; first compound 0.1 µM) | relative viability ([3]; first compound 0.3162 µM) | relative viability ([3]; first compound 1 µM) | relative viability ([4]; first compound 0.0002 µM) | relative viability ([4]; first compound 0.000632 µM) | relative viability ([4]; first compound 0.002 µM) | relative viability ([4]; first compound 0.006325 µM) | relative viability ([4]; first compound 0.02 µM)
1 | NCI-H1437 | 1.22 | 1.28 | 1.21 | 1.16 | 1.25 | 0.532 | 0.621 | 0.577 | 0.272 | 0.223 | 0.97 | 0.922 | 0.962 | 1.01 | 0.88 | 0.405 | 0.405 | 0.403 | 0.114 | 0.118
2 | NCI-H1651 | 0.766 | 0.734 | 0.774 | 0.47 | 0.42 | 0.801 | 0.83 | 0.832 | 0.758 | 0.395 | 0.884 | 0.765 | 1.04 | 0.611 | 0.236 | 0.694 | 0.72 | 0.619 | 0.099 | 0.101
3 | NCI-H1666 | 0.952 | 0.989 | 0.959 | 0.482 | 0.384 | 0.834 | 0.761 | 0.875 | 0.854 | 0.563 | 0.93 | 0.903 | 0.881 | 0.255 | 0.223 | 0.558 | 0.664 | 0.51 | 0.296 | 0.261
4 | NCI-H1734 | 0.81 | 0.863 | 0.9 | 0.785 | 0.628 | 0.628 | 0.601 | 0.56 | 0.41 | 0.121 | 0.682 | 0.619 | – | 0.57 | 0.511 | 0.263 | 0.295 | 0.276 | 0.133 | 0.093
5 | NCI-H1755 | 0.913 | 0.937 | 0.886 | 0.908 | 0.961 | 0.78 | 0.728 | 0.716 | 0.66 | 0.389 | 0.871 | 0.906 | 0.871 | 0.871 | 0.889 | 0.571 | 0.612 | 0.566 | 0.193 | 0.157
6 | NCI-H1793 | 0.602 | 0.743 | 0.758 | 0.609 | 0.675 | 0.405 | 0.402 | 0.356 | 0.167 | 0.119 | 0.702 | 0.629 | 0.885 | 0.678 | 0.795 | 0.316 | 0.299 | 0.444 | 0.252 | 0.102
7 | NCI-H1915 | 1.07 | 1.09 | 1.06 | 1.06 | 1.07 | 0.299 | 0.181 | 0.285 | 0.21 | 0.106 | 1.05 | 0.965 | 0.993 | 1.08 | 1.05 | 0.428 | 0.448 | 0.416 | 0.0502 | 0.0519
8 | NCI-H1944 | 0.877 | 0.772 | 0.894 | 0.942 | 0.933 | 0.433 | 0.429 | 0.37 | 0.318 | 0.239 | 0.808 | 0.817 | 0.859 | 0.89 | 0.839 | 0.234 | 0.248 | 0.247 | 0.195 | 0.136
9 | NCI-H1975 | 0.973 | 1.02 | – | 0.854 | 0.296 | 0.343 | 0.333 | 0.4 | 0.254 | 0.105 | 0.629 | 0.666 | 0.663 | 0.476 | 0.182 | 0.676 | 0.831 | 0.099 | 0.0653 | 0.088
10 | NCI-H1993 | 0.766 | 0.757 | 0.807 | 0.771 | 0.876 | 0.506 | 0.541 | 0.408 | 0.616 | 0.509 | 0.704 | 0.648 | 0.682 | 0.667 | 0.6 | 0.595 | 0.635 | 0.576 | 0.454 | 0.448
11 | NCI-H2009 | 1.24 | 1.25 | 1.23 | 0.477 | 0.333 | 0.309 | 0.22 | 0.215 | 0.139 | 0.0702 | 1.08 | 1.16 | 1.19 | 1.13 | 0.286 | 0.725 | 0.807 | 0.704 | 0.229 | 0.0821
12 | NCI-H2023 | 0.944 | 0.841 | 0.804 | 0.804 | 0.316 | 0.522 | 0.649 | 0.449 | 0.0864 | 0.0663 | 0.603 | 0.667 | 0.578 | 0.605 | 0.334 | 0.305 | 0.356 | 0.428 | 0.329 | 0.0545
13 | NCI-H2085 | 0.761 | 0.998 | 1.14 | 0.795 | 0.531 | 0.594 | 0.48 | 0.535 | 0.261 | 0.214 | 0.89 | 0.925 | 0.98 | 0.57 | 0.29 | 0.873 | 0.872 | 0.697 | 0.302 | 0.281
14 | NCI-H2087 | 1.21 | 1.05 | 1.1 | 0.324 | 0.465 | 0.155 | 0.18 | 0.151 | 0.072 | 0.0577 | 0.738 | 1.18 | 0.953 | 0.854 | 0.354 | 0.236 | 0.276 | 0.19 | 0.0648 | 0.0487
15 | NCI-H2126 | 1.11 | 1.1 | 1.12 | 1.16 | 1.13 | 0.57 | 0.534 | 0.555 | 0.516 | 0.346 | 0.779 | 0.752 | 0.743 | 0.769 | 0.714 | 0.815 | 0.921 | 0.763 | 0.488 | 0.214
16 | NCI-H2170 | 1 | 1.02 | 0.996 | 1.02 | 0.975 | 0.932 | 0.916 | 0.91 | 0.671 | 0.355 | 0.777 | 0.749 | 0.825 | 0.724 | 0.683 | 0.658 | 0.718 | 0.783 | 0.178 | 0.145
17 | NCI-H2228 | 0.851 | 0.867 | 0.861 | 0.759 | 0.511 | 0.518 | 0.22 | 0.637 | 0.106 | 0.0612 | 0.662 | 0.601 | 0.629 | 0.436 | 0.27 | 0.232 | 0.231 | 0.251 | 0.0818 | 0.102
18 | NCI-H2347 | 1.09 | 0.831 | 0.918 | – | 1.04 | 0.291 | 0.231 | 0.264 | 0.291 | 0.216 | 1.02 | 0.994 | 0.841 | 1.01 | 0.93 | 0.522 | 0.676 | 0.471 | 0.195 | 0.166
19 | NCI-H2405 | 1.09 | 1.06 | – | 1.07 | 1.13 | 0.63 | 0.397 | 0.685 | 0.519 | 0.147 | 0.806 | 0.891 | – | 0.777 | 0.711 | 0.715 | 0.804 | 0.629 | 0.23 | 0.153
20 | NCI-H3122 | 0.97 | 0.783 | 0.912 | 0.925 | 0.947 | 0.201 | 0.167 | 0.293 | 0.334 | 0.257 | 0.787 | 0.812 | 0.792 | 0.707 | 0.751 | 0.388 | 0.43 | 0.266 | 0.153 | 0.088
21 | PC-3 [JPC-3] | 1 | 1.03 | 1.01 | 1.01 | 0.916 | 0.726 | 0.744 | 0.701 | 0.706 | 0.417 | 0.968 | 1.01 | 0.999 | 0.975 | 1.1 | 0.827 | 0.898 | 0.442 | 0.169 | 0.125
22 | PC-14 | 0.858 | 0.945 | 0.917 | 0.872 | 0.661 | 0.85 | 0.805 | 0.835 | 0.0586 | 0.038 | 0.875 | 0.92 | 0.892 | 0.775 | 0.632 | 0.415 | 0.612 | 0.562 | 0.113 | 0.0502
23 | RERF-LC-KJ | 0.823 | 0.883 | 0.862 | 0.792 | 0.844 | 0.905 | 0.956 | 0.928 | 0.605 | 0.295 | 0.754 | 0.811 | 0.805 | 0.803 | 0.775 | 0.523 | 0.436 | 0.559 | 0.208 | 0.189
24 | SK-LU-1 | 0.775 | 0.855 | 0.804 | 0.409 | 0.357 | 0.502 | 0.266 | 0.555 | 0.229 | 0.129 | 0.825 | 0.984 | 0.779 | 0.355 | 0.29 | 0.284 | 0.362 | 0.282 | 0.102 | 0.1
25 | SK-MES-1 | 0.935 | 1.03 | 0.831 | 0.833 | 0.867 | 0.549 | 0.646 | 0.595 | 0.245 | 0.137 | 0.828 | 0.785 | 1.01 | 0.824 | 0.645 | 0.935 | 0.933 | 0.882 | 0.315 | 0.127
26 | SW 1573 | 0.866 | 0.732 | 0.816 | 0.81 | 0.6 | 0.542 | 0.636 | 0.521 | 0.12 | 0.0764 | 0.789 | 0.701 | 0.946 | 0.672 | 0.556 | 0.168 | 0.172 | 0.165 | 0.0802 | 0.0573
27 | UMC-11 | 1.07 | 1.08 | 1.05 | 0.716 | 0.382 | 0.682 | 0.681 | 0.503 | 0.162 | 0.101 | 0.954 | 0.892 | 1.03 | 0.584 | 0.442 | 0.19 | 0.208 | 0.197 | 0.229 | 0.204
